Here are results for 10 compounds from ChEMBL document CHEMBL1201862, “PubChem BioAssay data set” (2004).

Some test systems named below: SF-268; A549; U-251; MDA-N; OVCAR-5; SK-MEL-2; KM12; NCI-H522; RXF 393; RPMI-8226; SW-620; OVCAR-3; OVCAR-4; HOP-62; HT-29; OVCAR-8; SK-OV-3; SNB-19; UACC-257; LOX IMVI.
Holding throughout (experiment): NCI-60 cell line screen, 48 h

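Exposure lasted 48 hours, with cells grown in 96-well plates and compounds tested at five concentrations. At the GI50, growth is halved.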 Activity calls are given as the source filed them. No stated cut-off is given here; in the data, active = GI50 up to about 1.1 µM and inactive = higher.

As for `CCOc1cc(C2CC(c3ccc(NS(=O)(=O)c4cc([N+](=O)[O-])ccc4C)cc3)=NN2c2ccc([N+](=O)[O-])cc2[N+](=O)[O-])ccc1O` (centres undefined), the GI50 in the assay on SF-268 was 11.1 µM (inactive); in the assay on A549, 6.55 µM (inactive); in the assay with U-251, 9.48 µM (inactive); with MDA-N it was 12.2 µM (inactive); in the assay with OVCAR-5, 23.4 µM (inactive); in the assay with SK-MEL-2 it was 19.5 µM (inactive). Also, the GI50 in the assay with KM12 was 11 µM (inactive); in the assay with NCI-H522, 10.4 µM (inactive); in the assay with RXF 393 it was 7.11 µM (inactive); in the assay on RPMI-8226, 11.3 µM (inactive); in the assay on SW-620 it was 21.8 µM (inactive); in the assay with OVCAR-3, 11.4 µM (inactive). Moreover, the GI50 in the assay on OVCAR-4 was 3.3 µM (inactive); in the assay on HOP-62, 10.7 µM (inactive); in the assay on HT-29, 41.6 µM (inactive); with OVCAR-8, 5.22 µM (inactive); in the assay with SK-OV-3, 3.43 µM (inactive); in the assay with SNB-19, 7.46 µM (inactive). The results for the GI50 in the assay with UACC-257 and in the assay with LOX IMVI were 19.1 µM (inactive) and 16.6 µM (inactive), respectively.

For the compound `COC1=CC2C(c3cc4ccccc4n3S(=O)(=O)c3ccccc3)CC1CN2C(=O)OCc1ccccc1` (centres undefined), the GI50 with A549 is 20.5 µM (inactive); with U-251, 37.3 µM (inactive); with MDA-N, 34.5 µM (inactive); with OVCAR-5, 18.2 µM (inactive); with SK-MEL-2 it was 23.6 µM (inactive); with KM12, 26.9 µM (inactive). For the same compound, the GI50 with NCI-H522 is 18 µM (inactive); in the assay with RXF 393 it was 14.4 µM (inactive); in the assay with RPMI-8226, 17.2 µM (inactive); in the assay with SW-620, 37.6 µM (inactive); in the assay with OVCAR-3, 19.5 µM (inactive); in the assay on OVCAR-4, 26.1 µM (inactive). The GI50 is 40.4 µM (inactive) in the assay with HOP-62; 23.6 µM (inactive) with HT-29; 50.8 µM (inactive) with OVCAR-8; 28.8 µM (inactive) in the assay on SK-OV-3; 34.8 µM (inactive) with UACC-257; 24.8 µM (inactive) in the assay with LOX IMVI.

As to `CC1=NN(c2cccc(Cl)c2)C(=N/c2nc3ccccc3s2)/C1=C\c1ccccc1O`, the GI50 is 24.2 µM (inactive) in the assay with SF-268; 23.8 µM (inactive) in the assay with U-251; 30.4 µM (inactive) in the assay with MDA-N; 61.7 µM (inactive) in the assay on OVCAR-5; 18.9 µM (inactive) in the assay with SK-MEL-2; 38.9 µM (inactive) in the assay with KM12. For the same compound, the GI50 in the assay with NCI-H522 was 20 µM (inactive); in the assay on RXF 393, 38.1 µM (inactive); with RPMI-8226 it was 34.8 µM (inactive); in the assay with SW-620, 31.6 µM (inactive); in the assay with OVCAR-3, 19.2 µM (inactive); with OVCAR-4, 47.5 µM (inactive). For the same compound, the GI50 with HOP-62 is 29.6 µM (inactive); in the assay with HT-29, 39.7 µM (inactive); with OVCAR-8, 27.4 µM (inactive); in the assay with SK-OV-3 it was 26 µM (inactive); in the assay with UACC-257 it was 21.9 µM (inactive); with LOX IMVI, 19.9 µM (inactive).

For `CC1=NN(c2nc(N)nc(NS(=O)(=O)c3cc(C)c(Cl)cc3S)n2)C(C)(C)C1`, the GI50 with SF-268, with A549, with U-251, in the assay with MDA-N, in the assay on OVCAR-5 and in the assay with SK-MEL-2 was > 10 µM (inactive) each time. Moreover, the GI50 in the assay on KM12, in the assay on NCI-H522, in the assay on RXF 393, with RPMI-8226, with SW-620 and in the assay with OVCAR-3 was > 10 µM (inactive) throughout. Also, the GI50 in the assay with OVCAR-4, in the assay on HOP-62, with HT-29, in the assay with OVCAR-8, in the assay on SK-OV-3 and with SNB-19 was > 10 µM (inactive) throughout. The GI50 with UACC-257 and with LOX IMVI was > 10 µM (inactive) in each case.

On to `O=C(NCCSSCCNC(=O)/C(Cc1ccc(O)c(Br)c1)=N/O)/C(Cc1ccc(O)c(Br)c1)=N/O` [PSAMMAPLIN A], for which the GI50 was 1.62 µM (inactive) in the assay on SF-268; 1.44 µM (inactive) in the assay on A549; 1.1 µM (active) with U-251; 1.6 µM (inactive) in the assay on MDA-N; 2.21 µM (inactive) with OVCAR-5; 1.1 µM (active) with SK-MEL-2. The GI50 with KM12 is 1.47 µM (inactive); with NCI-H522, 0.682 µM (active); in the assay with RXF 393, 0.796 µM (active); in the assay with RPMI-8226 it was 1.36 µM (inactive); in the assay on SW-620 it was 1.64 µM (inactive); in the assay on OVCAR-3, 1.87 µM (inactive). The GI50 with OVCAR-4 is 3.1 µM (inactive); in the assay on HOP-62, 0.885 µM (active); in the assay on HT-29 it was 1.35 µM (inactive); in the assay on OVCAR-8, 1.52 µM (inactive); in the assay on SK-OV-3, 0.933 µM (active); in the assay on SNB-19 it was 2.08 µM (inactive). Moreover, the results for the GI50 in the assay with UACC-257 and in the assay with LOX IMVI were 1.6 µM (inactive) and 1.3 µM (inactive), respectively.

On to `CC1OC(NCCNCCNC2OC(C)C(O)C(O)C2O)C(O)C(O)C1O` (centres undefined), for which the GI50 in the assay on SF-268, in the assay on A549, with U-251, in the assay with MDA-N, in the assay on OVCAR-5 and in the assay on SK-MEL-2 was > 100 µM (inactive) each time. For the same compound, the GI50 in the assay on KM12, with NCI-H522, with RXF 393, in the assay with RPMI-8226, in the assay with SW-620 and in the assay on OVCAR-3 was > 100 µM (inactive) throughout. Moreover, the GI50 in the assay on OVCAR-4, with HOP-62, in the assay on HT-29, with OVCAR-8, with SNB-19 and in the assay with UACC-257 was > 100 µM (inactive) each time. Further, the GI50 in the assay with LOX IMVI was > 100 µM (inactive).

For the compound `CC(C)Oc1cc2c(cc1O)CC[C@@H]1[C@@H]2CC[C@]2(C)[C@@H](O)CC[C@@H]12`, the GI50 in the assay with SF-268 is 5.93 µM (inactive); with A549, 5.52 µM (inactive); in the assay on U-251 it was 13.3 µM (inactive); with MDA-N, 0.424 µM (active); in the assay on OVCAR-5, 27.5 µM (inactive); with KM12, 4.2 µM (inactive). Also, the GI50 was 1.58 µM (inactive) in the assay with NCI-H522; 3.82 µM (inactive) in the assay with RXF 393; 4.29 µM (inactive) in the assay on RPMI-8226; 2.72 µM (inactive) in the assay on SW-620; 2.81 µM (inactive) in the assay with OVCAR-3; 9.64 µM (inactive) in the assay on OVCAR-4. In addition, the GI50 is 4.15 µM (inactive) in the assay with HOP-62; 9.84 µM (inactive) in the assay on HT-29; 8.75 µM (inactive) with OVCAR-8; 4.67 µM (inactive) in the assay with SK-OV-3; 5.31 µM (inactive) in the assay with SNB-19; 3.99 µM (inactive) in the assay on UACC-257. For the same compound, in the assay on LOX IMVI, the GI50 was 4.58 µM (inactive).

Take `CCOC(=O)CCC(NC(=O)c1ccc(Nc2nc3ccc(C(F)(F)F)cc3nc2-c2ccccc2)cc1)C(=O)OCC` (centres undefined): the GI50 was 55.6 µM (inactive) in the assay with SF-268; > 100 µM (inactive) with A549; > 100 µM (inactive) in the assay with U-251; 19.6 µM (inactive) in the assay with MDA-N; > 92.9 µM (inactive) in the assay on OVCAR-5; 19.1 µM (inactive) with SK-MEL-2. The GI50 with KM12 is > 94 µM (inactive); with NCI-H522 it was 22.1 µM (inactive); in the assay with RXF 393, 49 µM (inactive); in the assay with RPMI-8226, > 84.1 µM (inactive); with SW-620 it was > 100 µM (inactive); in the assay with OVCAR-3, 26.6 µM (inactive). Besides, the GI50 in the assay with OVCAR-4 is 34.2 µM (inactive); in the assay with HOP-62, > 100 µM (inactive); with HT-29 it was > 100 µM (inactive); with OVCAR-8, > 100 µM (inactive); in the assay with SNB-19, > 100 µM (inactive); with UACC-257, 17.5 µM (inactive). Also, the GI50 with LOX IMVI is > 42 µM (inactive).

In the case of `Cc1cc(O)c(C(C)C)cc1CN1CCCCC1`, the GI50 in the assay on SF-268, in the assay on A549, in the assay on U-251, in the assay with MDA-N, with OVCAR-5 and in the assay with KM12 was > 100 µM (inactive) each time. In addition, the GI50 in the assay with NCI-H522, in the assay on RXF 393, with RPMI-8226, with SW-620, in the assay with OVCAR-3 and in the assay with OVCAR-4 was > 100 µM (inactive) in each case. In addition, the GI50 in the assay with HOP-62, with HT-29, in the assay on OVCAR-8, in the assay on SK-OV-3, with SNB-19 and with UACC-257 was > 100 µM (inactive) each time. Further, in the assay on LOX IMVI, the GI50 was > 100 µM (inactive).

Consider `Cc1nc2ccc(Cl)cc2c2c1CCN2c1ccccc1`, for which the GI50 is 23 µM (inactive) with SF-268; 15 µM (inactive) in the assay on A549; 16.4 µM (inactive) in the assay with U-251; 1.5 µM (inactive) in the assay with MDA-N; 17.5 µM (inactive) in the assay on KM12; 11.7 µM (inactive) in the assay on NCI-H522. Also, the GI50 in the assay on RXF 393 was 3.47 µM (inactive); with RPMI-8226 it was 12.4 µM (inactive); with SW-620, 18.6 µM (inactive); in the assay on OVCAR-3, 10.3 µM (inactive); in the assay with OVCAR-4, 26.4 µM (inactive); in the assay on HOP-62, 21.5 µM (inactive). Also, the GI50 in the assay with HT-29 was 7.18 µM (inactive); in the assay on OVCAR-8 it was 15 µM (inactive); in the assay on SNB-19, 23.5 µM (inactive); with UACC-257, 15.2 µM (inactive); in the assay on LOX IMVI, 10.3 µM (inactive).
